Test results from US20250188040A1, “PHARMACEUTICAL COMPOSITIONS COMPRISING WRN HELICASE INHIBITORS” (Vividion Therapeutics, Inc., priority 2022, published 2025).
Read-outs that look alike come from different tables or passages of the source.

Experiments:
WRN C727 = target: T1, WRN C727 (Homo sapiens, UniProt Q14191); assay: Target engagement, in vitro (lysate), OCI-AML2; assay type: binding; details: read-out: OCI-AML2 WRN C727 TE50 in vitro (lysate)
T1 construct: endogenous in cells; host or cells: OCI-AML2
Description: Cells or cell lysates were treated with a dose response of compound followed by probe treatment, which labels solvent exposed cysteines. Proteins were enzymatically digested with trypsin and probe-labelled peptides were enriched with streptavidin. Isolated peptides were then separated using reversed-phase liquid chromatography on a C18 column (Dionex Ultimated 3000 nano-LC, Thermo). Peptides were analyzed by parallel reaction monitoring mass spectrometry (Exploris 120, Thermo).
Target engagement (%) is calculated relative to DMSO treated control samples.

[1] = target: hWRN(519-1227)_C-H3CV-GFP-10His (Homo sapiens, UniProt Q14191); assay: Helicase Assay for WRN Inhibition (ATP-dependent, fluorescence based)
[2] = WRN Helicase IC50, 30 min preincubation with ATP, 30 min reaction

T1 sequence (Q14191 whole entry): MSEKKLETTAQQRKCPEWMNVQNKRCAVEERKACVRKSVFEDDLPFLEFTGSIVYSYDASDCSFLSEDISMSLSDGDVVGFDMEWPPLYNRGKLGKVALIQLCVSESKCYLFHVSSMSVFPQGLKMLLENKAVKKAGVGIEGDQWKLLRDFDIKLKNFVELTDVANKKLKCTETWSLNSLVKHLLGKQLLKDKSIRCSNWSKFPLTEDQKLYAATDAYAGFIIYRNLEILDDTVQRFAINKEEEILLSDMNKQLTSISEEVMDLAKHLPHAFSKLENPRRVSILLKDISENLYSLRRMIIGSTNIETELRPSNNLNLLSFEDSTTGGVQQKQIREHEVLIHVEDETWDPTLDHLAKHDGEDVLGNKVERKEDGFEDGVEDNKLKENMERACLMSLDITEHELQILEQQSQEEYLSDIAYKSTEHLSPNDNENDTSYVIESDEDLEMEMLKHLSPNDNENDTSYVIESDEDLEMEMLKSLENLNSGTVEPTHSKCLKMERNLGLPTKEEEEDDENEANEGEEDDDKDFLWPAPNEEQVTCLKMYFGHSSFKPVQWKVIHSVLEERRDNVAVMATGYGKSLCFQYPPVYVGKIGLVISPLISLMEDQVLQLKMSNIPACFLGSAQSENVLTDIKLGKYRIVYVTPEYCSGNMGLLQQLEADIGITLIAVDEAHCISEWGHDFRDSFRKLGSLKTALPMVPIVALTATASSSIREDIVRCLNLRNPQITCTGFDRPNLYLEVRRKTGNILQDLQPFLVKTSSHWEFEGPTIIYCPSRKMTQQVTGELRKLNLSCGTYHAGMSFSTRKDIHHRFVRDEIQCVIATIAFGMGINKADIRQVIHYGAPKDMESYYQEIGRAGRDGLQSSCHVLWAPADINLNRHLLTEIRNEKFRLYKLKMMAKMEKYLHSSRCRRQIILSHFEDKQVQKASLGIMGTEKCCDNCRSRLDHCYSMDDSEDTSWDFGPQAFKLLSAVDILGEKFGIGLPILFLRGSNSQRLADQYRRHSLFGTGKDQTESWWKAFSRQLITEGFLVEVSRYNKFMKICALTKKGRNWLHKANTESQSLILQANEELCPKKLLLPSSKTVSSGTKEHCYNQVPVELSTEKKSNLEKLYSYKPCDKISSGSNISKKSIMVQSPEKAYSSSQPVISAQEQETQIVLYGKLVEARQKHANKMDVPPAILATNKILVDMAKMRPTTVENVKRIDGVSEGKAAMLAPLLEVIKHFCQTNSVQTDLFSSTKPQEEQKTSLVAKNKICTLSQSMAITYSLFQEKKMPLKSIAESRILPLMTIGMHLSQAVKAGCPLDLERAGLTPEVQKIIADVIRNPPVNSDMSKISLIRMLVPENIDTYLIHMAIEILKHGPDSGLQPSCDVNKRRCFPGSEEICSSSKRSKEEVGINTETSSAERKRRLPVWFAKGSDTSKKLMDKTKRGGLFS
hWRN(519-1227)_C-H3CV-GFP-10His, sequence (Q14191 519-1227): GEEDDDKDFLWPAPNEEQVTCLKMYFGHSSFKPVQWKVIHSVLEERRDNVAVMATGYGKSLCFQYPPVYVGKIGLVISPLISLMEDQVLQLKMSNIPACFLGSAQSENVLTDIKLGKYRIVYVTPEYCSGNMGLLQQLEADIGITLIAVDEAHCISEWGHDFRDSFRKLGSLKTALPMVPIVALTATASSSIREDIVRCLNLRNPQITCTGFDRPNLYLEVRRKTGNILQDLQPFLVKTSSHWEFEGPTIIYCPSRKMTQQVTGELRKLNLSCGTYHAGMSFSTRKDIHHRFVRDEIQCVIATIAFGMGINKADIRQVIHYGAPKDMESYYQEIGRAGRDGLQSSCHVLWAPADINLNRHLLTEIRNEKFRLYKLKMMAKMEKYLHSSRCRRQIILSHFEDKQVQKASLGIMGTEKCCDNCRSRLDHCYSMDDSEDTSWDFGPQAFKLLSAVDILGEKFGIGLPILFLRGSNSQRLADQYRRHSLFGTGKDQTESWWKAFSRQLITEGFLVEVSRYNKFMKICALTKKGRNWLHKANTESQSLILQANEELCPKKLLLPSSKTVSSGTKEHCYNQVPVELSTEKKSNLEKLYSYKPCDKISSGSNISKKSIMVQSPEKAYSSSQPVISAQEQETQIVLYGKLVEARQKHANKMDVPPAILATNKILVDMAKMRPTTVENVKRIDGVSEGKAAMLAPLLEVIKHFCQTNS

Compound	IC50 (WRN C727)	IC50 [1, 2]	IC50 [1]	IC50 ([1]; read-out: WRN Helicase IC50, 30 min preincubation with ATP, 30 min reaction)
CC(C)(C)c1ncc(C(=O)NC2(C=CS(C)(=O)=O)CC2)c(Oc2ccccc2)n1 (racemic) [Example 59, 2-(tert-butyl)-N-(1-(2-(methylsulfonyl)vinyl)cyclopropyl)-4-phenoxypyrimidine-5-carboxamide]	> 100 µM	54 µM	–	–
C[C@@H](/C=C/S(C)(=O)=O)NC(=O)c1cnc(C2CCCC2)nc1O[C@H]1CCCC[C@H]1O (single isomer, unassigned) [Example 129]	> 100 µM	85 µM	–	–
C[C@@H](/C=C/S(C)(=O)=O)NC(=O)c1cnc(C2CCCC2)nc1O[C@@H]1CCCC[C@@H]1O (single isomer, unassigned) [Example 130]	> 100 µM	50 µM	–	–
C[C@@H](/C=C/S(C)(=O)=O)NC(=O)c1cnc(C2CCCC2)nc1O[C@H]1CCCC[C@@H]1O (single isomer, unassigned) [Example 131]	> 100 µM	24 µM	–	–
C[C@@H](/C=C/S(C)(=O)=O)NC(=O)c1cnc(C2CCCC2)nc1O[C@@H]1CCCC[C@H]1O (single isomer, unassigned) [Example 132]	> 100 µM	30 µM	–	–
O=C(NC1C=CS(=O)(=O)C1)c1cnc(C2CC2)nc1Oc1ccccc1 (stereo not drawn) [Example 27, 2-cyclopropyl-N-(1,1-dioxido-2,3-dihydrothiophen-3-yl)-4-phenoxypyrimidine-5-carboxamide]	–	–	34 µM	–
CO[C@H](C)[C@@H](/C=C/S(C)(=O)=O)NC(=O)c1cnc(C2CC2)nc1Oc1ccccc1 [Example 32, 2-cyclopropyl-N-((3R,4R,E)-4-methoxy-1-(methylsulfonyl)pent-1-en-3-yl)-4-phenoxypyrimidine-5-carboxamide]	> 100 µM	35 µM	–	–
CS(=O)(=O)C1=CCN(C(=O)c2cnc(C3CC3)nc2Oc2ccccc2)C1 [Example 34, (2-cyclopropyl-4-phenoxypyrimidin-5-yl)(3-(methylsulfonyl)-2,5-dihydro-1H-pyrrol-1-yl)methanone]	> 100 µM	–	26 µM	–
C[C@@H](/C=C/S(C)(=O)=O)NC(=O)c1cnc(C2Cc3ccccc32)nc1Oc1ccccc1 (stereo partly drawn) [Example 52, 2-(bicyclo[4.2.0]octa-1,3,5-trien-7-yl)-N—((S,E)-4-(methylsulfonyl)but-3-en-2-yl)-4-phenoxypyrimidine-5-carboxamide]	> 100 µM	66 µM	–	–
C[C@@H](/C=C/S(C)(=O)=O)NC(=O)c1cnc(C2CCOC2)nc1Oc1ccccc1 (stereo partly drawn) [Example 79, N—((S,E)-4-(methylsulfonyl)but-3-en-2-yl)-4-phenoxy-2-(tetrahydrofuran-3-yl)pyrimidine-5-carboxamide]	> 100 µM	18 µM	–	–
Cc1ccc(Oc2nc(C3CCCC3)ncc2C(=O)NC/C=C/S(C)(=O)=O)cc1 [Example 104, (E)-2-cyclopentyl-N-(3-(methylsulfonyl)allyl)-4-(p-tolyloxy)pyrimidine-5-carboxamide]	21.8 µM	19 µM	–	–
Cc1ccccc1Oc1nc(C2CCCC2)ncc1C(=O)N[C@@H](C)/C=C/S(C)(=O)=O [Example 106, (S,E)-2-cyclopentyl-N-(4-(methylsulfonyl)but-3-en-2-yl)-4-(o-tolyloxy)pyrimidine-5-carboxamide]	> 100 µM	24 µM	–	–
CCc1ccc(Oc2nc(C3CCCC3)ncc2C(=O)N[C@@H](C)/C=C/S(C)(=O)=O)cc1 [Example 107, (S,E)-2-cyclopentyl-4-(4-ethylphenoxy)-N-(4-(methylsulfonyl)but-3-en-2-yl)pyrimidine-5-carboxamide]	> 100 µM	82 µM	–	–
Cc1ccc(Oc2nc(C3CCCC3)ncc2C(=O)N[C@@H](C)/C=C/S(C)(=O)=O)cc1C [Example 109, (S,E)-2-cyclopentyl-4-(3,4-dimethylphenoxy)-N-(4-(methylsulfonyl)but-3-en-2-yl)pyrimidine-5-carboxamide]	> 100 µM	183 µM	–	–
C[C@@H](/C=C/S(C)(=O)=O)NC(=O)c1cnc(C2CCCC2)nc1Oc1ccccn1 [Example 126, (S,E)-2-cyclopentyl-N-(4-(methylsulfonyl)but-3-en-2-yl)-4-(pyridin-2-yloxy)pyrimidine-5-carboxamide]	> 100 µM	44.4 µM	–	–
C[C@@H](/C=C/S(C)(=O)=O)NC(=O)c1cnc(C2CCCC2)nc1O[C@H]1CCCOC1 [Example 134, 2-cyclopentyl-N—((S,E)-4-(methylsulfonyl)but-3-en-2-yl)-4-(((S)-tetrahydro-2H-pyran-3-yl)oxy)pyrimidine-5-carboxamide]	> 100 µM	53 µM	–	–
C[C@@H](/C=C/S(C)(=O)=O)NC(=O)c1cnc(C2CCCC2)nc1Oc1ccc(O)cc1 [Example 135, (S,E)-2-cyclopentyl-4-(4-hydroxyphenoxy)-N-(4-(methylsulfonyl)but-3-en-2-yl)pyrimidine-5-carboxamide]	75 µM	70 µM	–	–
CC(C)(C)c1ncc(C(=O)NC/C=C/S(C)(=O)=O)c(O[C@H]2C[C@@H]3C[C@@H]3C2)n1 [Example 145, 4-(((1R,3s,5S)-bicyclo[3.1.0]hexan-3-yl)oxy)-2-(tert-butyl)-N—((E)-3-(methylsulfonyl)allyl)pyrimidine-5-carboxamide]	>100 µM	–	–	59 µM

Continued, in another order:

IC50 (WRN C727)	IC50 [1, 2]	IC50 [1]	Compound	IC50 ([1]; read-out: WRN Helicase IC50, 30 min preincubation with ATP, 30 min reaction)
31.2 µM	13 µM	–	CC1CC[C@@H](C)N1c1ncc(C(=O)N[C@@H](C)/C=C/S(C)(=O)=O)c(Oc2ccccc2)n1 (stereo in doubt) [Example 172, 2-((2R,5S)-2,5-dimethylpyrrolidin-1-yl)-N—((S,E)-4-(methylsulfonyl)but-3-en-2-yl)-4-phenoxypyrimidine-5-carboxamide]	–
> 100 µM	19 µM	–	C[C@@H](/C=C/S(C)(=O)=O)NC(=O)c1cnc(C2CCCC2)nc1Oc1cccc(N)c1 [Example 138, (S,E)-4-(3-aminophenoxy)-2-cyclopentyl-N-(4-(methylsulfonyl)but-3-en-2-yl)pyrimidine-5-carboxamide]	–
> 100 µM	118 µM	–	C[C@@H](/C=C/S(C)(=O)=O)NC(=O)c1cnc(C2CC2)nc1OC1CC2(CCC2)C1 [Example 141, (S,E)-2-cyclopropyl-N-(4-(methylsulfonyl)but-3-en-2-yl)-4-(spiro[3.3]heptan-2-yloxy)pyrimidine-5-carboxamide]	–
50 µM	20 µM	–	C[C@@H](/C=C/S(C)(=O)=O)NC(=O)c1cnc(C2CC2)nc1OC1CC2(CC2)C1 [Example 142, (S,E)-2-cyclopropyl-N-(4-(methylsulfonyl)but-3-en-2-yl)-4-(spiro[2.3]hexan-5-yloxy)pyrimidine-5-carboxamide]	–
–	53 µM	–	C[C@@H](/C=C/S(C)(=O)=O)NC(=O)c1cnc(C2CC2)nc1OC1CCC(F)(F)C1 (stereo partly drawn) [Example 146, 2-cyclopropyl-4-((3,3-difluorocyclopentyl)oxy)-N—((S,E)-4-(methylsulfonyl)but-3-en-2-yl)pyrimidine-5-carboxamide]	–
–	110 µM	–	COC1CN(c2ncc(C(=O)N[C@@H](C)/C=C/S(C)(=O)=O)c(Oc3ccccc3)n2)C1 [Example 169, (S,E)-2-(3-methoxyazetidin-1-yl)-N-(4-(methylsulfonyl)but-3-en-2-yl)-4-phenoxypyrimidine-5-carboxamide]	–
–	27 µM	–	CS(=O)(=O)/C=C/CNC(=O)c1ccc(C2CCCC2)cc1OC1CCCC1 [Example 198, (E)-4-cyclopentyl-2-(cyclopentyloxy)-N-(3-(methylsulfonyl)allyl)benzamide]	–
–	–	77 µM	C[C@@H](/C=C/S(C)(=O)=O)NC(=O)c1ccc(C2CCCC2)c2cccnc12 [Example 203, (S,E)-5-cyclopentyl-N-(4-(methylsulfonyl)but-3-en-2-yl)quinoline-8-carboxamide]	–
–	96 µM	–	Cc1c(C2CC2)ncc(C(=O)N[C@@H](C)/C=C/S(C)(=O)=O)c1Oc1ccccc1 [Example 204, (S,E)-6-cyclopropyl-5-methyl-N-(4-(methylsulfonyl)but-3-en-2-yl)-4-phenoxynicotinamide]	–
–	–	63 µM	C[C@@H](/C=C/S(C)(=O)=O)NC(=O)c1cc2c(cc1Oc1ccccc1)CC(C)(C)C2=O [Example 248, (S,E)-2,2-dimethyl-N-(4-(methylsulfonyl)but-3-en-2-yl)-3-oxo-6-phenoxy-2,3-dihydro-1H-indene-5-carboxamide]	–
–	–	39 µM	CC1(C)Cc2cc(Oc3ccccc3)c(C(=O)N3CC(=CS(C)(=O)=O)C3)cc2C1=O [Example 249, 2,2-dimethyl-6-(3-((methylsulfonyl)methylene)azetidine-1-carbonyl)-5-phenoxy-2,3-dihydro-1H-inden-1-one]	–
–	103 µM	–	Cn1cnc2cc(C(=O)N[C@H](/C=C/S(C)(=O)=O)C3CC3)c(Oc3ccccc3)nc21 [Example 251, (S,E)-N-(1-cyclopropyl-3-(methylsulfonyl)allyl)-3-methyl-5-phenoxy-3H-imidazo[4,5-b]pyridine-6-carboxamide]	–
–	116 µM	–	N#C/C=C/CNC(=O)c1cnc(C2CC2)nc1Oc1ccccc1 [Example 266, (E)-N-(3-cyanoallyl)-2-cyclopropyl-4-phenoxypyrimidine-5-carboxamide]	–
–	29 µM	–	N#C/C=C\CNC(=O)c1cnc(C2CC2)nc1Oc1ccccc1 [Example 267, (Z)—N-(3-cyanoallyl)-2-cyclopropyl-4-phenoxypyrimidine-5-carboxamide]	–
–	64 µM	–	CS(=O)(=O)/C=C/CNC(=O)c1ccc(C2CCCC2)cc1OC1CC1 [Example 283, (E)-4-cyclopentyl-2-cyclopropoxy-N-(3-(methylsulfonyl)allyl)benzamide]	–
